Experimental data: patent US20220054494A1, “METHODS FOR TREATING BLADDER AND URETHRA DYSFUNCTION AND DISEASE” (University of Pittsburgh - Of the Commonwealth System of …, priority 2019, published 2022)
Entries after “also recorded” stand apart in the source; their conditions may differ.

Tests used:
Type in all cases: in vivo, rat
[1] = tested on: cathepsin B; test: Western immunoblotting, cathepsin B; details: aged rats; oral 8-AG 5 mg/kg/day, 6 weeks
Protocol: Western immunoblotting: Following the testing paradigms, rats were deeply anesthetized, bladders as well as the proximal urethra were removed, and one half of each preparation was homogenized using Lysing Matrix D in a FastPrep 24 instrument (MP Biomedicals, Solon, Ohio) in HBSS [5 mM KCl, 0.3 mM KH2PO4, 138 mM NaCl, 4 mM NaHO3, 0.3 mM Na2HCO3, 0.3 mM Na2HPO4, 5.6 mM glucose, and 10 mM Hepes, pH 7.4 containing a complete protease inhibitor cocktail (1 tablet/10 ml, ROCHE®, Indianapolis, Ind.) and a phosphatase inhibitor cocktail (SIGMA®, 1:100)]. After centrifugation (13000 rpm; 15 min at 4° C.), the membrane protein fraction was prepared by suspending the membrane pellets in lysis buffer containing 0.3 M NaCl, 50 mM Tris-HCl (pH 7.6), and 0.5% Triton X-100 and the same concentration of protease inhibitors as above. The suspensions were incubated on ice and centrifuged (13000 rpm; 15 min at 4° C.). The protein concentrations of the combined supernatants were determined using the PIERCE® BCA protein assay (THERMO SCIENTIFIC®, Rockford, Ill.). […] As a loading control, total protein per sample was determined using Bio-Rad Stain Free SDS-PAGE gel technology. UV-activated protein fluorescence was imaged on a CHEMIDOC® MP (BIO-RAD®). […] The volume (intensity) of each protein species was determined and normalized to total protein using Image Lab software (BIO-RAD®). […]

[2] = tested on: bladder wall; test: Bladder volume measurements (bladder wall volume / thickness)
Protocol: Bladder volume measurements: Changes in bladder wall thickness in all groups (young, aged, and aged+treatment) were measured by placing displacement markers on the bladder surface (in situ) while volume measurements were recorded. Custom computer algorithms were used to calculate longitudinal, circumferential, and area strain from measurements of surface marker positions.

[3] = tested on: LC3; test: Western immunoblotting, LC3 (lipidated form); details: aged rats; oral 8-AG 5 mg/kg/day, 6 weeks
Protocol: Western immunoblotting: Following the testing paradigms, rats were deeply anesthetized, bladders as well as the proximal urethra were removed, and one half of each preparation was homogenized using Lysing Matrix D in a FastPrep 24 instrument (MP Biomedicals, Solon, Ohio) in HBSS [5 mM KCl, 0.3 mM KH2PO4, 138 mM NaCl, 4 mM NaHO3, 0.3 mM Na2HCO3, 0.3 mM Na2HPO4, 5.6 mM glucose, and 10 mM Hepes, pH 7.4 containing a complete protease inhibitor cocktail (1 tablet/10 ml, ROCHE®, Indianapolis, Ind.) and a phosphatase inhibitor cocktail (SIGMA®, 1:100)]. After centrifugation (13000 rpm; 15 min at 4° C.), the membrane protein fraction was prepared by suspending the membrane pellets in lysis buffer containing 0.3 M NaCl, 50 mM Tris-HCl (pH 7.6), and 0.5% Triton X-100 and the same concentration of protease inhibitors as above. The suspensions were incubated on ice and centrifuged (13000 rpm; 15 min at 4° C.). The protein concentrations of the combined supernatants were determined using the PIERCE® BCA protein assay (THERMO SCIENTIFIC®, Rockford, Ill.). […] As a loading control, total protein per sample was determined using Bio-Rad Stain Free SDS-PAGE gel technology. UV-activated protein fluorescence was imaged on a CHEMIDOC® MP (BIO-RAD®). […] The volume (intensity) of each protein species was determined and normalized to total protein using Image Lab software (BIO-RAD®).

[4] = tested on: MCP-1; test: RT-qPCR of bladder MCP-1 mRNA in CYP cystitis model; details: CYP (75 mg/kg i.p.) female Sprague Dawley rats; oral 8-AG 5 mg/kg/day starting one week prior to CYP
Protocol: Animals: Female Sprague Dawley rats were employed in this example (Charles River; Wilmington, Mass.). Three groups of animals were included. Group 1 received an i.p. injection of saline and was used as a control; groups 2 and 3 received an i.p. injection of cyclophosphamide (CYP, SIGMA-ALDRICH®, St Louis, Mo., day 0, 3, 6, sacrifice day 8, 75 mg/kg, i.p.) with group 3 treated with oral 8-AG (5 mg/kg/day; starting one week prior to CYP). CYP induced bladder inflammation and is a well-established pre-clinical model for BPS/IC.
RT-qPCR: Total RNA was isolated from bladders using TRIZOL® Reagent (THERMO FISHER SCIENTIFIC®; Waltham, Mass.) according to the manufacturer's instructions. The cDNA was synthesized using ISCRIPT™ cDNA synthesis kit (BIO-RAD®). qPCR analysis was performed using Power SYBR™ Green PCR Master Mix (THERMO FISHER SCIENTIFIC®) in the APPLIED BIOSYSTEMS® QUANTSTUDIO™ 3 Real-Time PCR System (THERMO FISHER SCIENTIFIC®). The primers used were as follows: for IL-1beta, 5′-[…]-3′ (forward; SEQ ID NO: 1) and 5′-[…]-3′ (reverse; SEQ ID NO: 2); for MCP-1, 5′-[…]-3′ (forward; SEQ ID NO: 3) and 5′-[…]-3′ (reverse; SEQ ID NO: 4); for β-actin, 5′-ACTCTTCCAGCCTTCCTTC-3′ (forward; SEQ ID NO: 5) and 5′-[…]-3′ (reverse; SEQ ID NO: 6). The threshold cycle (Ct) for target was subtracted from Ct for β-actin to give ΔCt. Results are expressed as 2AC.

Structure (SMILES): Nc1nc2[nH]c(N)nc2c(=O)[nH]1 [8-AG, 8-Aminoguanine]
- cathepsin B expression in urethra [1]: trend toward reversal
- bladder wall volume ([2]; aged Fisher 344 rats, 8-AG 5 mg kg/day via drinking water, 1 month): restored to that of a younger state
- bladder wall width / thickness ([2]; aged rats, oral 8-AG 5 mg/kg/day, 6 weeks): restored to that of a younger state
- LC3 (lipidated form) expression in detrusor [3]: partially restores expression toward younger state; also recorded: trend toward reversal
- MCP-1 mRNA expression in bladder [4]: suppressed; also recorded: near the detection limit; also recorded: nearly abolished
